The species named for test [1] is Rattus norvegicus. In words: Compound's potency to increase the level of the dopamine metabolite homovanillic acid (HVA), levels in male wistar rats at 0.39 ug/g dose. In kind it is functional.
The species entered for test [2] is Rattus norvegicus. As to the kind of experiment: Compound's potency to increase the level of the dopamine metabolite DOPAC levels in male wistar rats at 0.62 ug/g dose. In kind it is functional.
The species named for test [3] is Rattus norvegicus. As to the kind of experiment: Compound's potency to increase the level of the dopamine metabolite homovanillic acid (HVA), levels in male wistar rats at 0.44 ug/g dose. In kind it is functional.
For test [4], the species on record is Rattus norvegicus. In words: Compound's potency to increase the level of the dopamine metabolite DOPAC levels in male wistar rats at 0.6 ug/g dose. The test is classed as functional.
The next test has as its target Dopamine receptor (Bos taurus, UniProt Q95136+P20288). In words: Compound was tested for its ability to displace [3H]spiroperidol from dopamine receptor. The test is classed as protein assay.
Test [5] is filed under the species Rattus norvegicus. In words: Compound's potency to increase the level of the dopamine metabolite DOPAC levels in male wistar rats at 1.26 ug/g dose. In kind it is functional.
For test [6], the species on record is Rattus norvegicus. In words: Compound's potency to increase the level of the dopamine metabolite homovanillic acid (HVA), levels in male wistar rats at 1.10 ug/g dose. In kind it is functional.
Test [7] is filed under the species Rattus norvegicus. In words: Compound's potency to increase the level of the dopamine metabolite DOPAC levels in male wistar rats at 1.15 ug/g dose. The test is classed as functional.
Test [8] is filed under the species Rattus norvegicus. In words: Compound's potency to increase the level of the dopamine metabolite homovanillic acid (HVA), levels in male wistar rats at 0.63 ug/g dose. In kind it is functional.
The species entered for test [9] is Rattus norvegicus. In words: Compound's potency to increase the level of the dopamine metabolite DOPAC levels in male wistar rats at 0.73 ug/g dose. In kind it is functional.
For test [10], the species on record is Rattus norvegicus. In words: Compound's potency to increase the level of the dopamine metabolite homovanillic acid (HVA), levels in male wistar rats at 0.54 ug/g dose. The test is classed as functional.
For test [11], the species on record is Rattus norvegicus. As to the kind of experiment: Compound's potency to increase the level of the dopamine metabolite DOPAC levels in male wistar rats at 0.95 ug/g dose. The test is classed as functional.

For the compound `CN(C)C1CCN2c3cc(Cl)ccc3Sc3cccc1c32` (stereo not given), the Control in the test filed under Rattus norvegicus [1] is reported as 88%; in the test listed under Rattus norvegicus [2], 98%.
`CN(C)C1CCN2c3ccccc3Sc3cccc1c32` (stereo not given): the results for the Control in the test filed under Rattus norvegicus [3] and in the test listed under Rattus norvegicus [4] were 93% and 95%, respectively.
The term IC50 denotes the concentration needed to halve the response being measured. Read a low IC50 as inhibition by little substance. The compound `CN(C)CC1Cc2c(Cl)ccc3c2N(C1)c1ccccc1S3` (stereo not given) returned an IC50 on Dopamine receptor of 1.2 µM. Besides, the Control amounted to 118% in the test listed under Rattus norvegicus [5] and 157% in the test filed under Rattus norvegicus [6].
Turning to `CN(C)CC1Cc2cccc3c2N(C1)c1ccccc1S3` (stereo not given), at Dopamine receptor, the concentration for half-maximal inhibition (IC50) worked out at 1.4e-06 µM. The Control in the test listed under Rattus norvegicus [7] was found to be 107%; in the test listed under Rattus norvegicus [8], 90%.
In the case of `CN(C)C1CCN2c3ccccc3Sc3ccc(Cl)c1c32` (stereo not given), the Control came to 100% in the test listed under Rattus norvegicus [3] and 115% in the test listed under Rattus norvegicus [9].
Turning to `CN(C)CC1Cc2cccc3c2N(C1)c1cc(Cl)ccc1S3` (stereo not given), the IC50 on Dopamine receptor is 13 µM. Also, the Control in the test listed under Rattus norvegicus [10] amounted to 70%; in the test listed under Rattus norvegicus [11], 89%.
